Source: patent US10927136B2, “Phosphorus prodrugs of pyrazolo-substituted pyrimidine sGC stimulators” (Cyclerion Therapeutics, Inc., priority 2016, dated 2021)

How the values were obtained:
[1] = Ex-vivo rat intestinal fluid stability assay; format: in vitro ADME; set-up: half-life: dose or concentration left out as unconfirmed; conditions: 37° C.; for prodrug converted into its parent drug: after 30 minutes of incubation; for half-life: rat intestinal (jejunum) fluid, read-out: disappearance half-life (T1/2)
Protocol: Phosphate prodrugs disclosed herein were designed to be cleaved by alkaline phosphatase(s) that are present on the apical brush-border membranes of the intestine, after which the more hydrophobic parent compound is readily absorbed. Phosphatases are also present in the liver and in the systemic circulation. In order to test the speed of cleavage of the prodrug into the parent drug, […] solutions of each of the test compounds were incubated in rat intestinal (jejunum) fluid. Samples were taken at times=0, 5, 15, 30 and 60 min and the mixtures were quenched by the addition of acetonitrile containing an internal standard. Samples were analyzed by full scan LC/MS. The following protocol was used:
10 mM DMSO stock solutions were thawed or prepared for the positive control (Enalapril) and each test article. Internal standard (IS) crash solution in acetonitrile (ACN) with 20 ng/ml of Compound Z, depicted below, was prepared. Stock (250 uM) was prepared from 10 mM in 50/50 acetonitrile/H2O. Rat intestinal fluid vials were thawed in a water bath at rt.
In a 96-well, 1 ml plate, 48 uL of rat intestinal fluid was aliquoted in triplicate for each time point. The t0 (“0 min”) time point was prepared separately by adding 450 ul of IS crash solution to 48 ul of intestinal fluid, then adding 2 uL of test compound. 2 ul of the 250 uM substock was added to initiate the reaction at 5 min, 15 min, 30 min, and 60 min. The plate prepared in the above steps was covered with a plastic or foil seal and was set in the 37° C. incubator, lightly shaking. For each time point, 450 ul of IS crash solution was added to quench the reaction. The plates were centrifuged at 4000 RPM for 10 minutes at 4° C. 50 ul of supernatant was transferred into 50 ul of H2O and analyzed using LC/MS.
The disappearance of the prodrug and the conversion to the parent were monitored over time.

[2] = cited from earlier work
[3] = known; cited from earlier work
[4] = human microsomes, after 15 min; cited from earlier work

## O=P(O)(O)OC1(CNc2nc(-c3cc(-c4ccon4)n(Cc4ccccc4F)n3)ncc2F)CCOCC1 [Compound I-3]
[1]
  prodrug converted into its parent drug: about 25%
[1]; after 60 minutes of incubation
  prodrug remaining uncleaved: less than 10%

## O=P(O)(O)OC(Cn1cncn1)(Cn1cncn1)c1ccc(F)cc1F [fosfluconazole]
[2]
  human half-life (from published data): 90 to 150 min
[3]
  cleavage to the parent drug in vivo: known to cleave slowly to the parent drug in vivo
[1]; after 60 minutes of incubation
  prodrug remaining uncleaved: About 80%
[1]
  half-life: 211 min

## O=C1NC(c2ccccc2)(c2ccccc2)C(=O)N1COP(=O)(O)O [fosphenytoin]
[2]
  human half-life (from published data): 8 to 15 min
[3]
  cleavage to the parent drug in vivo: known to cleave to the parent drug quickly in vivo
[1]
  prodrug converted into its parent drug: More than 80%
  half-life: 5 min
[1]; after 60 minutes of incubation
  prodrug remaining uncleaved: no prodrug could be detected

## COc1cc(Nc2ncc(F)c(Nc3ccc4c(n3)N(COP(=O)(O)O)C(=O)C(C)(C)O4)n2)cc(OC)c1OC [fostamatinib]
[2]; human clinical trials, oral dosing, after the 2-hour time point
  quantifiable fostamatinib in subjects: no quantifiable fostamatinib was observed
[3]
  cleavage to the parent drug in vivo: known to cleave to the parent drug quickly in vivo
[1]
  prodrug converted into its parent drug: About 50%
  half-life: 34 min
[1]; after 60 minutes of incubation
  prodrug converted into its parent drug / cleaved: About 80%
[4]
  hydrolysis of prodrug: fully hydrolized
